The values below come from article PMC5066224, “A Novel Resveratrol Based Tubulin Inhibitor Induces Mitotic Arrest and Activates Apoptosis in Cancer Cells” (Scientific Reports, 2016).

In one series the test system is HEK293T. The series is described as follows: Trypan blue dye exclusion cell viability assay. The class given is cell-based, human. The following applies: 1-20 μM, compared to most of the cancer cells. The method, then:
(§1) The effect of SS28 on viability of CEM, Reh, Nalm6, SUDHL8, Molt4, A549, HeLa 293T, mouse embryonic fibroblast (MEF) and PBMC was determined by trypan blue dye exclusion assay as described previously. Briefly, cells (0.75 × 10^5 cells/ml) were treated with increasing concentrations of SS28 (1, 5, 10 and 20, μM) for 48 and 72 h. DMSO treated cells were used as the vehicle control. Cells were harvested and subjected to trypan blue assay. Data from a minimum of three independent experiments is presented as a histogram with error bars.

The test system of series [1] is CEM cells. The series is described as follows: Mitochondrial membrane potential (JC-1 staining, flow cytometry). The following applies: CEM, 1, 5, 10, 20 μM, 48 h. The class given is cell-based, Human. The procedure: Flow cytometric analysis of cells stained with JC-1 was used to measure changes in mitochondrial transmembrane potential as described. Briefly, cells were seeded at a density of 1 × 10^5 cells/ml and treated with SS28 (1, 5, 10 and 20 μM). After 48 h, cells were harvested, washed and incubated with JC-1 (5,5′,6,6 tetrachloro-1,1′,3,3′-tetraethyl benzimidazol carbocyanine iodide; Calbiochem, USA) for 15 min. 2,4-Dinitrophenol-treated cells (2,4-DNP) served as the positive control. Cells were processed and analyzed by flow cytometry using CellQuest pro software with an excitation at 488 nm laser and emission at 530 nm. JC-1 monomers emit at 530 nm and J-aggregates emit at 590 nm.
On the technique in general: Flow cytometry measures light scatter and fluorescence of single cells or particles in a stream.

Series [2] has as its system several cancer cell lines. The series is described as follows: Cytotoxicity in cancer cell lines ex vivo (summary). The class given is cell-based. The procedure: as §1
Series [3] relates to CEM cells. The series can be described thus: Cell cycle phase distribution by flow cytometry. The class given is cell-based, Human. The following applies: 2 μM, after 12 h. The procedure:
Cell cycle analysis by flow cytometry was performed as previously described. Briefly, 75,000 cells/ml (A549) were seeded in 6 well plates and grown in serum free medium for 18 h. After synchronisation, the cells were treated with 5 μM of SS28 (6, 12, 18, 24 and 30 h) and cells were processed as described before. Similarly, CEM cells (75,000 cells/ml) were treated with SS28 (2 μM) and harvested (6, 12, 18, 24 and 30 h) and processed. Following fixation, cells were resuspended in PBS and stained with propidium iodide and evaluated in a flow cytometer (FACS Calibur, Becton Dickinson) using Cell Quest Pro software using excitation 488 nm laser and emission at 560/570 nm. A minimum of 10,000 cells were acquired per sample and histograms were analysed using WinMDI 2.8 software.

pIC50: −log10 of the molar value.

With `COc1cc(/C=C/c2ccc(C)cc2)cc(OC)c1OC` [SS28, (E)-1,2,3-trimethoxy-5-(4-methylstyryl)benzene], the “cytotoxicity on normal cell line” value in the series with HEK293T is “limited cytotoxicity”. Further, the “mitochondrial membrane potential (JC-1 fluorescence)” value in the series with CEM cells [1] is “concentration dependant increase in the green fluoresced cells”. The molecule also had a pIC50 in series [2] of 5.30 to 5.52. Also, the cell cycle distribution result with CEM cells [3] is given as “distinct G2/M arrest”.

Broadly, the pIC50 is −log10 of the IC50, conventionally taken in molar units. A low value points to a high IC50.
